Measurements reported in patent publication US20240016781A1, “TREATMENT OF KRAS MUTANT CANCERS” (MEI Pharma, Inc., priority 2020, published 2024).
pEC50, pIC50: −log10 of the molar value. Read-outs that look alike come from different tables or passages of the source.

Legend:
Experiment in all cases: 72-hour CellTiter-Glo 2.0 growth inhibition screen (single agent, 9x9 combination dose matrix);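 on Best CI Level: inhibition effect level at which the best CI was calculated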
Assay type in all cases: cell-based
KYSE-410 = settings: for pEC50: KYSE-410, 72 h
TOV-21G = system: TOV-21G;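 on Best CI Level: inhibition effect level at which the best CI was calculated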
SW48 KRAS (G12C/+) = settings: for pEC50: SW48, 72 h, read-out: EC50
Gp2D = settings: for pEC50: GP2d
HPAF-II = system: HPAF-II;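 on Best CI Level: inhibition effect level at which the best CI was calculated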
[1] = Homo sapiens, KYSE-410, Esophageal, Additional Single Agent Responses (inhibition, % I), 72 h
[2] = Homo sapiens, KYSE-410, Esophageal, growth inhibition (GI) curve, single agent, 72 h
[3] = KYSE-410 (KRAS G12C), enhancer + MEI-522 (Voruciclib), 72 h;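 on Best CI Level: inhibition effect level at which the best CI was calculated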
[4] = enhancer combined with MEI-522 (Voruciclib), KYSE-410 (Esophageal), 72 hours, inhibition data
[5] = TOV-21G (KRAS G13C), enhancer + MEI-522 (Voruciclib), 72 h;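 on Best CI Level: inhibition effect level at which the best CI was calculated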
[6] = enhancer combined with MEI-522 (Voruciclib), TOV-21G (Ovary), 72 hours, inhibition data
[7] = Homo sapiens, SW48 KRAS (G12C/+), Colorectal, Additional Single Agent Responses (inhibition, % I), 72 h
[8] = Homo sapiens, SW48 KRAS (G12C/+), Colorectal, growth inhibition (GI) curve, single agent, 72 h
[9] = SW48 KRAS (G12C/+), enhancer + MEI-522 (Voruciclib), 72 h
[10] = enhancer combined with MEI-522 (Voruciclib), SW48 KRAS (G12C/+) (Colorectal), 72 hours, inhibition data
[11] = Gp2D (KRAS G12D), enhancer + MEI-522 (Voruciclib), 72 h;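 on Best CI Level: inhibition effect level at which the best CI was calculated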
[12] = Gp2D, Colorectal, Additional Single Agent Responses (inhibition, % I), 72 h
[13] = enhancer combined with MEI-522 (Voruciclib), Gp2D (Colorectal), 72 hours, inhibition data
[14] = HPAF-II (KRAS G12D), enhancer + MEI-522 (Voruciclib), 72 h;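 on Best CI Level: inhibition effect level at which the best CI was calculated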
[15] = enhancer combined with MEI-522 (Voruciclib), HPAF-II (Pancreas), 72 hours, inhibition data

## CN1CCN(c2ccc(OC(F)(F)F)c(Nc3ncc4c(n3)-c3c(c(C(N)=O)nn3CCO)CC4)c2)CC1 [Onvansertib]
KYSE-410; [1]
  pEC50: 7.46
  pIC50: 7.26
KYSE-410; [2]
  pEC50: 7.46
  GI50: 43.1 nM
KYSE-410; Homo sapiens, KYSE-410, Esophageal, Additional Single Agent Responses, 72 h, read-out: Max Response (% I)
  Emax: 65%
KYSE-410; Homo sapiens, KYSE-410, Esophageal, growth inhibition (GI), single agent, 72 h, read-out: Max Response (% GI)
  Emax: 78%
KYSE-410; [3]
  Best CI: 0.60
  Bliss Volume: −1.39
  HSA volume: −2.18
  Loewe Volume: −2.01
  Synergy Score: 0.29
KYSE-410; KYSE-410, Esophageal, Additional Single Agent Responses (inhibition, % I), 72 h
  Response Area: 2.89
KYSE-410; KYSE-410, Esophageal, growth inhibition (GI), AUC, single agent, 72 h
  Response Area: 3.49
KYSE-410; [4]
  Best CI: 0.68
  Bliss Volume: −1.63
  HSA volume: −1.72
  Loewe Volume: −1.53
  Synergy Score: 0.20
KYSE-410; enhancer combined with MEI-522 (Voruciclib), KYSE-410 (Esophageal), 72 hours, inhibition data, unit assumed
  Best CI Level: 20%
TOV-21G; Homo sapiens, TOV21G, 72 h, TOV-21G, Ovary, Additional Single Agent Responses (inhibition, % I)
  pEC50: 7.55
TOV-21G; Homo sapiens, TOV21G, 72 h, TOV-21G, Ovary, growth inhibition (GI) curve, single agent
  pEC50: 7.47
TOV-21G; Homo sapiens, TOV21G, TOV-21G, Ovary, Additional Single Agent Responses (inhibition, % I), 72 h
  pIC50: 7.50
TOV-21G; Homo sapiens, TOV21G, TOV-21G, Ovary, Additional Single Agent Responses, 72 h, read-out: Max Response (% I)
  Emax: 86%
TOV-21G; Homo sapiens, TOV21G, TOV-21G, Ovary, growth inhibition (GI) curve, single agent, 72 h
  GI50: 26.5 nM
TOV-21G; Homo sapiens, TOV21G, TOV-21G, Ovary, growth inhibition (GI), single agent, 72 h, read-out: Max Response (% GI)
  Emax: 143%
TOV-21G; [5]
  Best CI: 0.40
  Bliss Volume: 5.55
  HSA volume: −0.24
  Loewe Volume: −0.71
  Synergy Score: 1.56
TOV-21G; TOV-21G, Ovary, Additional Single Agent Responses (inhibition, % I), 72 h
  Response Area: 3.84
TOV-21G; TOV-21G, Ovary, growth inhibition (GI), AUC, single agent, 72 h
  Response Area: 6.09
TOV-21G; [6]
  Best CI: 0.56
  Best CI Level: 30
  Bliss Volume: 0.52
  HSA volume: 0.33
  Loewe Volume: 0.43
  Synergy Score: 0.98
SW48 KRAS (G12C/+); [7]
  pEC50: 7.81
  pIC50: 7.79
SW48 KRAS (G12C/+); [8]
  pEC50: 7.77
  GI50: 15.9 nM
SW48 KRAS (G12C/+); Homo sapiens, SW48 KRAS (G12C/+), Colorectal, Additional Single Agent Responses, 72 h, read-out: Max Response (% I)
  Emax: 93%
SW48 KRAS (G12C/+); Homo sapiens, SW48 KRAS (G12C/+), Colorectal, growth inhibition (GI), single agent, 72 h, read-out: Max Response (% GI)
  Emax: 159%
SW48 KRAS (G12C/+); SW48 KRAS (G12C/+), Colorectal, Additional Single Agent Responses (inhibition, % I), 72 h
  Response Area: 4.14
SW48 KRAS (G12C/+); SW48 KRAS (G12C/+), Colorectal, growth inhibition (GI), AUC, single agent, 72 h
  Response Area: 5.77
SW48 KRAS (G12C/+); [9]
  Best CI: 0.86
  Bliss Volume: 2.74
  HSA volume: −2.16
  Loewe Volume: −0.91
  Synergy Score: 5.28
SW48 KRAS (G12C/+); [10]
  Best CI: 0.67
  Best CI Level: 20
  Bliss Volume: −0.08
  HSA volume: 0.19
  Loewe Volume: −0.06
  Synergy Score: 1.03
Gp2D; 72 h, Colorectal, Additional Single Agent Responses (inhibition, % I)
  pEC50: 7.62
Gp2D; 72 h, Colorectal, growth inhibition (GI) curve, single agent
  pEC50: 7.47
Gp2D; [11]
  Best CI: 0.96
  Bliss Volume: 7.51
  HSA volume: −1.36
  Loewe Volume: −1.41
  Synergy Score: 3.16
Gp2D; [12]
  pIC50: 7.59
  Response Area: 4.29
Gp2D; Gp2D, Colorectal, Additional Single Agent Responses, 72 h, read-out: Max Response (% I)
  Emax: 93%
Gp2D; Gp2D, Colorectal, growth inhibition (GI) curve, single agent, 72 h
  GI50: 22.4 nM
Gp2D; Gp2D, Colorectal, growth inhibition (GI), AUC, single agent, 72 h
  Response Area: 7.46
Gp2D; Gp2D, Colorectal, growth inhibition (GI), single agent, 72 h, read-out: Max Response (% GI)
  Emax: 170%
Gp2D; [13]
  Best CI: 0.77
  Best CI Level: 20
  Bliss Volume: 0.17
  HSA volume: 0.25
  Loewe Volume: 0.05
  Synergy Score: 0.56
HPAF-II; [14]
  Best CI: 0.70
  Bliss Volume: −0.18
  HSA volume: 0.48
  Loewe Volume: −0.22
  Synergy Score: 1.29
HPAF-II; HPAF-II, Pancreas, Additional Single Agent Responses (inhibition, % I), 72 h
  Response Area: 2.97
HPAF-II; HPAF-II, Pancreas, growth inhibition (GI), AUC, single agent, 72 h
  Response Area: 3.98
HPAF-II; Homo sapiens, HPAF-II, 72 h, Pancreas, Additional Single Agent Responses (inhibition, % I)
  pEC50: 7.68
HPAF-II; Homo sapiens, HPAF-II, 72 h, Pancreas, growth inhibition (GI) curve, single agent
  pEC50: 7.68
HPAF-II; Homo sapiens, HPAF-II, Pancreas, Additional Single Agent Responses (inhibition, % I), 72 h
  pIC50: 7.44
HPAF-II; Homo sapiens, HPAF-II, Pancreas, Additional Single Agent Responses, 72 h, read-out: Max Response (% I)
  Emax: 65%
HPAF-II; Homo sapiens, HPAF-II, Pancreas, growth inhibition (GI) curve, single agent, 72 h
  GI50: 24.2 nM
HPAF-II; Homo sapiens, HPAF-II, Pancreas, growth inhibition (GI), single agent, 72 h, read-out: Max Response (% GI)
  Emax: 87%
HPAF-II; [15]
  Best CI: 0.85
  Bliss Volume: −1.20
  HSA volume: 0.37
  Loewe Volume: −0.12
  Synergy Score: 0.74
HPAF-II; enhancer combined with MEI-522 (Voruciclib), HPAF-II (Pancreas), 72 hours, inhibition data, unit assumed
  Best CI Level: 20%
